One test concerns the target T1, SIRT2 (Homo sapiens, UniProt Q8IXJ6).
T1 sequence (Q8IXJ6 1-389): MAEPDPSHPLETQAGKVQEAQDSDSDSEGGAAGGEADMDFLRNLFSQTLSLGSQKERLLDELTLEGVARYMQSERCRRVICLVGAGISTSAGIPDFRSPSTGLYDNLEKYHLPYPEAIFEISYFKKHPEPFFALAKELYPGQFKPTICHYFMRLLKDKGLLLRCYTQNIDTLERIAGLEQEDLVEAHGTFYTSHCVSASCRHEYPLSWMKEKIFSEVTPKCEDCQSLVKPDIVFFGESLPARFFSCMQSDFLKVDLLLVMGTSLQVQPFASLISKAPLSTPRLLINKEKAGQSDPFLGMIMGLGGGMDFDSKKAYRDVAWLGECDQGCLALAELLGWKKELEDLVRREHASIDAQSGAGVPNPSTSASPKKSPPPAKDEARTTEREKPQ
Description: In vitro SIRT2 deacetylase inhibition, electrophoretic mobility shift assay. The format is biochemical. The following applies: for IC50: recombinant SIRT2, FAM-RHKK(Ac)LM peptide, 1 mM NAD, 60 min 37 °C, mean ± SD, read-out: IC50 against SIRT2; for SIRT2 inhibition activity (in words): in vitro. An excerpt:
The designs of the new STLC derivatives were based on TH-3 by conserving its trityl group, whereas the L-histidine moiety was replaced by L-cysteine. To obtain exhaustive structure–activity relationship (SAR) information, the amino group was reductively alkylated or acylated using different substituted aldehydes and acyl chlorides, respectively. The terminal methyl ester group was kept or converted to hydrazide (Figure 2). […] Two noncommercially available aldehydes, 4-(dimethylamino)picolinaldehyde and 4-(diethylamino)picolinaldehyde, were prepared as described previously. Thereafter, the in vitro SIRT2 inhibitory activities of these synthesized compounds were examined using electrophoretic mobility shift assays
Deacetylase activities of SIRT2 were measured with an electrophoretic mobility shift assay. […] After 60 min at 37 °C, the reaction was stopped by adding nicotinamide (final concentration 10 mM) in 50 μL stop buffer (100 mM HEPES (pH 7.5), 10 mM EDTA, 0.25% CR-3). The samples were analyzed using a LabChip EZ Reader II (PerkinElmer, Waltham, MA, USA). Percent conversion was defined as 100 × P / (P + S), where P and S are peak heights of the product and peptide substrate, respectively. The IC50 values were determined as means with standard deviation calculated from at least three independent dose–response curves using Origin software (OriginLab, Northampton, MA, USA).

The subject of a further test is MCF-7. The experiment in a line: MTT assay, MCF-7 cells. It is filed as cell-based, human. The settings on record: breast cancer. An excerpt: (§1) Next, the three active compounds (STC4, STC9, and STC11) were utilized for a cell-based assay to explore their potential antiproliferative effect against different cancer cell lines, including MCF7 (breast cancer), HeLa (cervical cancer), and different genotypes of leukemic cells (K562, MT-2, and HL-60) using an MTT assay. […] In general, STC11 cellular activity was less than STC4 and STC9. This may be explained by the lower cellular permeability due to the presence of the more polar hydrazide group.
(§2) HeLa human cervical carcinoma cell lines were incubated in Dulbecco’s modified Eagle’s medium. MCF-7 human breast cancer, leukemic (K562, HL-60, MT-2, and Jurkat), and normal blood (PBMC) (Precision Bioservices, Frederic, MD, USA) cells were incubated in RPMI1640 medium. All media (Wako, Osaka, Japan) were supplemented with 10% fetal bovine serum (Sigma-Aldrich, St. Louis, MO, USA) and 89 μg/mL streptomycin (Meiji Seika, Tokyo, Japan) at 37 °C in a humidified atmosphere of 95% air and 5% CO2. Exponentially growing cells were cultured in 24-well and 96-well plates (Iwaki brand Asahi Glass, Tokyo, Japan) at 2 × 10^4 cells/mL and 1 × 10^6 cells/mL, respectively, for 96 h before the addition of drugs (optimum cell number for cytotoxicity assays was determined in preliminary experiments). Stock solutions of compounds in concentrations between 0.01–10 mM were prepared in dimethyl sulfoxide (DMSO; Wako, Osaka, Japan) and further dilution was made with fresh culture medium. The concentration of DMSO in the final culture medium was 1%, which had no effect on cell viability.
(§3) The level of cellular MTT (Dojindo, Kumamoto, Japan) reduction was quantified as described previously […] At the end of this period, cells were stained with MTT solution and incubated for an additional 4 h at 37 °C. After the medium was removed, the formazan crystals were solubilized by addition of 100 μL DMSO to each well, and absorbance was determined using an Infinitive M1000 plate reader (Tecan, Mannedorf, Switzerland) at a wavelength of 550 nm with background subtraction at 630 nm. Every concentration was repeated in three wells, and IC50 values were calculated from MTT results and defined as the drug concentrations that reduced absorbance to 50% of the control values.
(In general: Tetrazolium assays rely on reduction of a dye to a coloured formazan, in cell work by metabolically active cells.)

For the next test, the system named is HeLa. Description: MTT assay, HeLa cells. It is filed as cell-based, human. The settings on record: 96 h exposure, cervical cancer.
Excerpt: as §1, §2, §3

The subject of another test is K562. Description: MTT assay, K562 cells. The format is cell-based, human. The following applies: leukemic cells.
Excerpt: as §1, §2, §3

In the next test the test system is MT-2. The experiment in a line: MTT assay, MT-2 cells. It is filed as cell-based, human. The following applies: leukemic cells.
Excerpt: as §1, §2, §3

For the next test, the system named is HL-60. The experiment in a line: MTT assay, HL-60 cells. The settings on record: leukemic cells. It is filed as cell-based, human.
Excerpt: as §1, §2, §3

Another test has as its system plasmid DNA (pUC19 DNA). Description: DNA cleavage assay with plasmid DNA. The following applies: 1 μM concentration, 37 °C, 2 h, with and without iron (II), H2O2, ascorbic acid. The protocol:
We then tested DNA cleavage as a possible molecular mechanism for cytotoxicity of the tested compounds using plasmid DNA (pUC19 DNA) witH- and without iron (II), H2O2, and ascorbic acid complex (Figure 3). The DNA cleavage reaction was carried out by incubating the reaction mixture at 37 °C for 2 h, and electrophoresis was performed. After electrophoresis, the DNA was stained with ethidium bromide, and the bands were visualized by exposure to ultraviolet radiation and recorded using an electronic camera. […] Furthermore, these compounds may activate oxygen in the cytoplasm. This may explain their high cellular cytotoxic activity owing to a dual effect combining SIRT2 inhibition and DNA cleavage.
The DNA cleavage assays were performed as described previously. Intensity of the bands was quantitated using ImageJ software (NIH, Bethesda, MD, USA).
Figure 3 The inhibitory effects of selected compounds on DNA cleavage in the presence and absence of FeSO4, H2O2, and ascorbic acid. (A) Form I (supercoil), form II (single strand break), and form III (double strand break) bands after electrophoresis. The Form I band is the lower and the Form II band is the upper portion. The pUC19 enzyme cut (by EcoR I) generates form III with mid mobility (the second lane from the left). (B) Relative intensity of form I and form II bands.

A further test relates to NCI 60 tumor cell line. Further details: method as in doi:10.1002/ddr.430340203. The following applies: NCI 60 tumor cell line screen; cited from earlier work.
The mark [1] stands for this setting: Homo sapiens, MCF7, 96 h exposure.
Setting [2] is: Homo sapiens, K562, 96 h exposure.
[3] abbreviates: Homo sapiens, MT2, 96 h exposure.
Setting [4] is: Homo sapiens, HL-60, 96 h exposure.

Each structure is given as a SMILES string. Where a name gives a salt, the structure may show the parent alone. Where only a bound is given, the exact number is not on record here.

The source of these data is publication PMC6766826, “Antiproliferative S-Trityl-L-Cysteine -Derived Compounds as SIRT2 Inhibitors: Repurposing and Solubility Enhancement” (Molecules, 2019).

On to `CCN(CC)c1ccc(CN[C@@H](CSC(c2ccccc2)(c2ccccc2)c2ccccc2)C(=O)OC)cc1` [STC2, Methyl N-(4-(diethylamino)benzyl)-S-trityl-L-cysteinate], for which the IC50 (in general, the concentration needed to halve the response being measured) on SIRT2 was greater than 100 µM.
Take `CCN(CC)c1ccnc(CN[C@@H](CSC(c2ccccc2)(c2ccccc2)c2ccccc2)C(=O)OC)c1` [STC9, Methyl N-((4-(diethylamino)pyridin-2-yl)methyl)-S-trityl-L-cysteinate]: the IC50 at SIRT2 turned out to be 17.2 ± 1.2 µM; with MCF-7 (setting [1]), 3.32 ± 0.41 µM; in the test with HeLa (Homo sapiens, HeLa) it was 2.72 ± 0.19 µM; with K562 (setting [2]) it was 2.53 ± 0.31 µM; in the test with MT-2 (setting [3]) it was 2.55 ± 0.28 µM; in the test with HL-60 (setting [4]), 1.19 ± 0.09 µM. Moreover, the DNA cleavage effect entry in the test with plasmid DNA (pUC19 DNA) is given as “strongest DNA cleavage effect”.
With `COC(=O)[C@H](CSC(c1ccccc1)(c1ccccc1)c1ccccc1)NCc1ccc(N(C)C)cc1OC` [STC6, Methyl N-(2-methoxy-4-(dimethylamino)benzyl)-S-trityl-L-cysteinate], the IC50 at SIRT2 was greater than 100 µM.
Same read-out and setting: under `COC(=O)[C@H](CSC(c1ccccc1)(c1ccccc1)c1ccccc1)NCc1ccc(N(C)C)cc1` [STC3, Methyl N-(4-(dimethylamino)benzyl)-S-trityl-L-cysteinate] stands greater than 100 µM.
In the case of `COC(=O)[C@H](CSC(c1ccccc1)(c1ccccc1)c1ccccc1)NCc1cc(N(C)C)ccn1` [STC4, Methyl N-((4-(dimethylamino)pyridin-2-yl)methyl)-S-trityl-L-cysteinate], the IC50 was 10.8 ± 1.9 µM on SIRT2; 3.16 ± 0.26 µM in the test on MCF-7 (setting [1]); 1.56 ± 0.17 µM in the test with HeLa (Homo sapiens, HeLa); 2.17 ± 0.25 µM with K562 (setting [2]); 3.15 ± 0.13 µM in the test on MT-2 (setting [3]); 0.45 ± 0.05 µM in the test on HL-60 (setting [4]). For the same compound, the “fold decrease in SIRT2 inhibition activity compared with TH-3” value on SIRT2 (vs TH-3) came to 10 fold.
On to `COC(=O)[C@H](CSC(c1ccccc1)(c1ccccc1)c1ccccc1)NCc1cccc(Br)n1` [STC1, Methyl N-((6-bromopyridin-2-yl)methyl)-S-trityl-L-cysteinate], for which, on SIRT2, the IC50 was greater than 100 µM.
For the compound `Cc1cc(C)nc(SCC(=O)Nc2ncc(Cc3cccc4ccccc34)s2)n1` [SirReal2, reference compound], the IC50 came to 17.1 ± 2.15 µM with MCF-7 (96 h exposure); 10.4 ± 0.94 µM in the test on HeLa; 13.7 ± 0.44 µM with K562 (96 h exposure); 17.9 ± 1.52 µM in the test on MT-2 (96 h exposure); 90.6 ± 8.77 µM in the test with HL-60 (96 h exposure).
As for `COC(=O)[C@H](CSC(c1ccccc1)(c1ccccc1)c1ccccc1)NCc1ccc(N(C)C)cc1Cl` [STC5, Methyl N-(2-chloro-4-(dimethylamino)benzyl)-S-trityl-L-cysteinate], on SIRT2, the IC50 was greater than 100 µM.
In the case of `COC(=O)[C@H](CSC(c1ccccc1)(c1ccccc1)c1ccccc1)NC(=O)c1cc(N(C)C)ccn1` [STC10, Methyl N-(4-(dimethylamino)picolinoyl)-S-trityl-L-cysteinate], at SIRT2, the “SIRT2 inhibition activity (in words)” value was “no activity” and the IC50 is greater than 100 µM.
Regarding `CCN(CC)c1ccnc(CN[C@H](Cc2cn(C(c3ccccc3)(c3ccccc3)c3ccccc3)cn2)C(=O)OC)c1` [TH-3, reference compound], the IC50 at SIRT2 turned out to be 1.3 ± 0.2 µM; in the test on MCF-7 (setting [1]) it was 0.71 ± 0.08 µM; with HeLa (Homo sapiens, HeLa), 0.37 ± 0.04 µM; in the test with K562 (setting [2]), 0.3 ± 0.02 µM; with MT-2 (setting [3]) it was 0.17 ± 0.02 µM; with HL-60 (setting [4]), 0.28 ± 0.04 µM.
On to `N[C@@H](CSC(c1ccccc1)(c1ccccc1)c1ccccc1)C(=O)O` [STLC, S-trityl-L-cysteine], for which the “half maximal tumor growth inhibition concentration” value in the test with NCI 60 tumor cell line is on record as 1.3 µM.
In the case of `COC(=O)[C@H](CSC(c1ccccc1)(c1ccccc1)c1ccccc1)NCc1ccccn1` [STC8, Methyl N-(pyridin-2-ylmethyl)-S-trityl-L-cysteinate], at SIRT2, the “SIRT2 inhibition activity (in words)” value is listed as “devoid of SIRT2 inhibition activity” and the IC50 is greater than 100 µM.
With `COC(=O)[C@H](CSC(c1ccccc1)(c1ccccc1)c1ccccc1)NCc1cnc2ccccc2c1` [STC7, Methyl N-(quinolin-3-ylmethyl)-S-trityl-L-cysteinate], on SIRT2, the IC50 was greater than 100 µM.
With `COC(=O)C(N)CSC(c1ccccc1)(c1ccccc1)c1ccccc1` (stereo in doubt) [Compound 1, S-Trityl-L-Cysteine Methyl Ester Hydrochloride], on SIRT2, the “SIRT2 inhibition activity (in words)” value was “inactive” and the IC50 was greater than 100 µM.
Regarding `CN(C)c1ccnc(CN[C@H](CSC(c2ccccc2)(c2ccccc2)c2ccccc2)C(=O)NN)c1` [STC11, (S)-2-(((4-(dimethylamino)pyridin-2-yl)methyl)amino)-3-(tritylthio)propanehydrazide], the IC50 at SIRT2 was 9.5 ± 1.2 µM; in the test on MCF-7 (setting [1]), 10 ± 1.12 µM; in the test on HeLa (Homo sapiens, HeLa) it was 7.95 ± 0.81 µM; in the test on K562 (setting [2]) it was 15 ± 1.17 µM; in the test on MT-2 (setting [3]), 16.8 ± 1.04 µM; in the test with HL-60 (setting [4]), 12.8 ± 0.95 µM.
